Reference: patent publication US20230302154A1, “NANODRUGS FOR TARGETED DRUG DELIVERY AND USE THEREOF” (priority 2020, published 2023)

Tests used:
HMC-3 cells [1] = test: Cell viability (MTS) assay on HMC-3 cells; type: cell-based, human; settings: HMC-3, 72 hours, 0.01-0.1 mg/mL
Procedure: (§1) To characterize the nanodisc formulation in the biological system in in vitro conditions, it was necessary to screen the formulation for cytotoxicity and ensure that it would not induce significant cytotoxicity to microglial (HMC-3) and neuronal (SH-SY5Y) cells. […] A cell viability (MTS) study was performed for both 1:20 and 1:4 NDs as per the manufacturer's instruction (G3582, Promega, Madison, WI, USA). Nanodiscs were introduced to these cells separately at varying TFV drug concentrations of 0.01-0.1 mg/mL and incubated for 72 hours.
(§2) Microglia and Neuroblastoma Cell Culture: Human embryonic microglial clone 3 cells (HMC-3) and human neuroblastoma cells (SH-SY5Y) were purchased from the American Type Culture Collection (ATCC) Manassas, VA, USA). The transformed cell lines retain the properties of primary cells. They represent homogeneous cell populations that can be grown indefinitely and might represent a convenient system for their functions' biochemical analysis. Cells were cultured in Eagle's Minimum Essential Medium (EMEM) (ATCC®, Manassas, VA, USA) supplemented with a fetal bovine serum to a final concentration of 10% at 37° C. in a humidified, 5% CO2 atmosphere as recommended by the supplier.
(§3) Cells were cultured in 96-well black bottom plates at 50,000 cells per well and incubated at 37° C. in a humidified, 5% CO2 atmosphere for 24 hours to allow for 70% confluence. […]

SH-SY5Y cells [2] = test: Cell viability (MTS) assay on SH-SY5Y cells; type: cell-based, human; settings: 72 hours, 0.01-0.1 mg/mL
Procedure: as §1, §2, §3

HMC-3 cells [3] = test: ROS production (DCF-DA) in HMC-3 cells; type: cell-based, human; settings: 0.01-0.1 mg/mL TFV
Procedure: (§4) As a first approach to predict the inflammatory response on neuronal cells, the ROS production of HMC-3 and SH-SY5Y cells was evaluated. HMC-3 (FIG. 12A) and SH-SY5Y cells (FIG. 12B) were treated with the different drug-to-lipid ratios of 1:20 and 1:4 at varying TFV drug concentrations (0.01-0.1 mg/mL). A negative control antioxidant (catalase) and positive control (H2O2) were used on non-treated cells. A simultaneous setup was also performed for empty NDs at varying lipid concentrations.
(§5) Reactive oxygen species of ND: Reactive oxygen species (ROS) productions in HMC-3 and SH-SY5Y cells following nanodisc treatment were detected using dichlorofluorescein diacetate assay (DCF-DA; Molecular Probes, Eugene, OR). Cells were cultured in 96-well black bottom plates at 100,000 cells per well and incubated at 37° C. in a humidified, 5% CO2 atmosphere for 24 hours to allow for 70% confluence. The following day, cell media was taken out from each well and replenished with 100 μl of PBS+1% FBS. […] A study of FD-TFV was also measured in similar conditions simultaneously. […] Following 2 hours, the first reading of cell ROS production was read in a BioTek Synergy HTH.T. multi-mode microplate reader (BioTek, Winooski, VT, USA) and then taken every hour for the following 18 hours (excitation 485 nm and emission 528 nm; BioTek). […]

SH-SY5Y cells [4] = test: ROS production (DCF-DA) in SH-SY5Y cells; type: cell-based, human; settings: 0.01-0.1 mg/mL TFV
Procedure: as §4, §5

[5] = In vitro sustained drug release assay of ND (equilibrium dialysis in PBS, LC-MS/MS); type: physicochemical
Procedure: In vitro sustained drug release assay: The nanodisc formulation's extended drug release profile was determined in phosphate buffer saline (PBS) using an equilibrium dialysis system. The released TFV from the dialysis bag into the outside environment was sampled at different time points up to 14 days and was measured by LC-MS/MS. The dialysis bag used in these experiments was selected for its pore size of 6-8 kDa MWCO. […] Simultaneously, a separate set up with the same concentration and volume of FD-TFV was used as a control. Results were expressed as the percentage of total TFV released into the system compared to the initial concentration. It was observed that 63% of FD-TFV was release within 4 hours. […] (FIG. 14).
In vitro sustained drug release assay of ND: The drug release kinetics of the nanodisc-based drug delivery was determined in PBS using equilibrium dialysis. […] TFV was monitored by LC-MS/MS using an AB Sciex (Framingham, MA) 6500+QTRAP® mass spectrometer coupled to a Shimadzu (Columbia, MD) NexeraX2 LC. […] LC-MS/MS then evaluated the supernatant. […] The limit of quantitation (LOQ) was defined as the lowest concentration at which back-calculation yielded a concentration within 20% of theoretical and above the LOD.

HMC-3 cells [6] = test: In vitro cellular uptake study in microglial cells; type: in vitro ADME, human; settings: HMC-3, 0.0625 mg/mL, monitored over 24 hours
Procedure: Cell uptake and characterization of extended-release from nanodisc: To evaluate the intracellular uptake of TFV in microglial cells an in vitro cellular uptake study was performed. The cellular uptake of the two formulations (1:20 ND and 1:4 ND) and FD-TFV as a control were evaluated simultaneously and the uptake and release of TFV was monitored over 24 hours. […] This small window of cellular uptake may indicate that there is a certain capacity that microglia cells can uptake TFV. […] However, the short windows of drug uptake by the microglial cells could indicate that the size and surface charge of the ND could be a contributing factor.
Cell uptake and characterization of extended-release from ND: Microglial uptake, retention, and release of 1:20 ND, 1:4 ND, and FD-TFV were determined. HMC-3 cells were cultured in 24-well at 50,000 cells per well and incubated at 37° C. in a humidified, 5% CO2 atmosphere for 24 hours to allow for 70% confluence. After 24 hours of cell growth, samples were assigned into different treatment groups of 1:20 ND, 1:4 ND, and FD-TFV and treated at 0.0625 mg/mL concentration. Following drug treatment, samples were incubated at 37° C., and cell uptake was determined every hour over 8 hours and at a 24-hour timepoint. For each sample, media was collected into microcentrifuge tubes and stored at −20° C. for later analysis. […]

[7] = mouse, in vivo, iv, 20 mg/kg
Procedure: PK data analysis was performed using the plasma concentrations of TFV in the mice (FIG. 17). Plasma samples were collected for up to 48 hrs and 72 hours.
An Envigo Teklad Certified Global 18% protein rodent diet, #2018C, and water were provided to the mice ad libitum. Mice were administered a single dose intravenous (iv) dose administration. The average weight of Phase A and Phase B mice were 17.3-18.6 g and 17.2-23.4 g, respectively. All procedures were per the current Association for Assessment and Accreditation of Laboratory Animal Care (AAALAC) recommendations. In vivo studies were carried out in collaboration with NIH-DAIDS Preclinical Contract Services.
During the PK study, 24 males and 24 females used for this phase were divided into two groups (Table 5). […]
TFV was detected with the mass spectrometer in positive MRM (multiple reaction monitoring) mode by following the precursor to fragment ion transitions 288.1 to 176.2 for TFV. A Phenomenex Synergi Polar-RP column (4 microns, 100×2 mm) was used for chromatography with the following conditions: Buffer A: 2% acetic acid in water, Buffer B: 0.1% acetic acid in acetonitrile, 0-2.0 min 2% B, 2.0-2.01 min gradient to 98% B, 2.01-3.5 min gradient to 98% B, and then 3.51-5 min gradient to 2% B. The concentration of drug in each timepoint sample was quantified using Analyst 1.7 software (AB Sciex).

[8] = In vitro sustained drug release assay of liposomal structure (equilibrium dialysis in PBS, NanoDrop); type: physicochemical
Procedure: In order to study the liposome formulation's extended drug release kinetics, a drug release study was done in PBS using an equilibrium dialysis system. […] Liposome 1 has a lipid charge density of 5%. The released TFV from the dialysis bag into the outside environment was sampled at different time points up to 14 days and was measured by a NanoDrop Microvolume Spectrophotometer. Simultaneously, a separate setup with the same concentration and volume of FD-TFV was used as a control. Results were expressed as the cumulative total of TFV released into the system compared to the initial concentration (FIG. 18). […] This downward trend may be caused by byproducts from the FD-TFV in the external environment.

For `C[C@H](Cn1cnc2c(N)ncnc21)OCP(=O)(O)O` [FD-TFV, Tenofovir], the “cytotoxicity compared to the control” value (HMC-3 cells [1]) was “not considered to be significantly toxic”, the “cytotoxicity compared to the control” value (SH-SY5Y cells [2]) was “not considered to be significantly toxic” and the “ROS production compared to the control” value (HMC-3 cells [3]) was “did not induce a significant increase”. For the same compound, the “ROS production compared to the control” value (SH-SY5Y cells [4]) was “did not induce a significant increase”, the “TFV release profile (comparison)” value ([5]; PBS dialysis, up to 14 days) was “significantly faster TFV release” and the “drug release within 4 hours” value ([5]; PBS, dialysis 6-8 kDa MWCO, 37° C., LC-MS/MS) was 63%. For the same compound, the “time of maximum uptake” value (HMC-3 cells [6]) was 2 h, the “AUCinf values (comparison with ND formulation)” value [7] was “higher” and the “plasma exposure higher than for ND (mean C0, AUClast and AUCinf)” value [7] was 2 fold. The “drug release of TFV within 4 hours” value ([8]; NanoDrop spectrophotometer) was 100% and the “drug release (comparison with liposomes)” value ([8]; up to 14 days) was “significantly faster drug release than the liposomes”.
